For assay [1], the target named is BTK in B18.2 cells (Homo sapiens, UniProt Q06187). The experiment in a line: Cellular BTK activity, immune complex kinase assay after treatment of cells. It is filed as cell-based. The following applies: treatment of B18.2 cells. The source says:
PIU: Phosphoimager units; DSU, densitometric scanning units; CON, control.
Polyclonal antibodies to BTK were generated by immunization of rabbits with glutathione S-transferase (GST) fusion proteins (Pharmacia Biotech Inc.) containing the first 150 amino acids of BTK. The monoclonal anti-Fas antibody (F22120) was obtained from the Transduction Laboratories, Inc. (Lexington, Ky.). […] Following electrophoresis, kinase gels were dried onto Whatman 3M filter paper and subjected to phosphoimaging on a Molecular Imager (Bio-Rad, Hercules, Calif.) as well as autoradiography on film. Similarly, all chemiluminescent BTK Western blots were subjected to three dimesional densitometric scanning using the Molecular Imager and Imaging Densitometer using the Molecular Analyst/Macontosh version 2.1 software following the specifications of the manufacturer (Bio-Rad). For each drug concentration, a BTK kinase activity index was determined by comparing the ratios of the kinase activity in phosphorimager units (PIU) and density of the protein bands in densitometric scanning units (DSU) to those of the baseline sample and using the formula: Activity Index=[PIU of kinase band/DSU of BTK protein band]test sample: [PIU of kinase band/DSU of BTK protein band]baseline control sample. […]

Assay [2] has as its target EGF-Receptor Kinase (EGFR) (Homo sapiens, UniProt P00533). The experiment in a line: Cell-free tyrosine kinase inhibition assay EGFR. It is filed as biochemical.
Assay [3] concerns ALL-1 cells. The experiment in a line: Ceramide-induced apoptosis, MC540/PI flow cytometry. The settings on record: 200 μM plus 10 μM C2-ceramide. It is filed as cell-based, human.
For assay [4], the target named is BTK-Fas association in NALM-6-UM1 cells (Homo sapiens, UniProt Q06187). The experiment in a line: BTK-Fas association, Western blot of BTK immune complexes. It is filed as cell-based. The following applies: 10 μM x 4 hours. The procedure:
FIGS. 6A-6D: Apoptotic Responses of Human B-lineage Leukemia Cells to Fas Ligation in Relationship to BTK Expression and Function. Anti-BTK and anti-Actin dual-antibody Western blot analysis of whole cell lysates from BTK-positive NALM-6-UM1 (N6-U1) and BTK-deficient RAMOS-1 cells (FIG. 5A). Anti-Fas Western blot analysis of the same cell lysates. [B] Cells were harvested 24 hours after exposure to anti-Fas antibody at 0.1 μg/ml or 1.0 μg/ml concentrations and DNA from Triton-X-100 lysates was analyzed for fragmentation, as described by Uckun, F. M., et al. (1996) Science 273, 1096-1100; and Uckun, F. M., et al. (1995) Science 267, 886-91. […] [C.1] and [C.2] Anti-BTK and anti-Fas Western blot analysis of whole cell lysates from N6-U1 cells treated with the BTK inhibitor LMA-13 (10 μM×4 hours). [C.3] Anti-Fas and Anti-BTK Western blot analysis of anti-BTK antibody immunoprecipitated BTK immune complexes from untreated (=−Inhibitor) and LMA-13-treated (10 μM×4 hours) (=+Inhibitor) N6-U1 cells. [D]. N6-U1 cells were harvested 24 hours after exposure to anti-Fas antibody at 0.1 μg/ml or 1.0 μg/ml concentrations and DNA from Triton-X-100 lysates was analyzed for fragmentation, as described by Uckun, F. M., et al. (1996) Science 273, 1096-1100; and Uckun, F. M., et al. (1995) Science 267, 886-91. […]

Consider one molecule from US6753348B2, “BTK inhibitors and methods for their identification and use” (Parker Hughes Institute, priority 1998, dated 2004).

SMILES strings stand for the structures.

EGF-Receptor Kinase (EGFR), sequence (P00533 25-1210, species assumed): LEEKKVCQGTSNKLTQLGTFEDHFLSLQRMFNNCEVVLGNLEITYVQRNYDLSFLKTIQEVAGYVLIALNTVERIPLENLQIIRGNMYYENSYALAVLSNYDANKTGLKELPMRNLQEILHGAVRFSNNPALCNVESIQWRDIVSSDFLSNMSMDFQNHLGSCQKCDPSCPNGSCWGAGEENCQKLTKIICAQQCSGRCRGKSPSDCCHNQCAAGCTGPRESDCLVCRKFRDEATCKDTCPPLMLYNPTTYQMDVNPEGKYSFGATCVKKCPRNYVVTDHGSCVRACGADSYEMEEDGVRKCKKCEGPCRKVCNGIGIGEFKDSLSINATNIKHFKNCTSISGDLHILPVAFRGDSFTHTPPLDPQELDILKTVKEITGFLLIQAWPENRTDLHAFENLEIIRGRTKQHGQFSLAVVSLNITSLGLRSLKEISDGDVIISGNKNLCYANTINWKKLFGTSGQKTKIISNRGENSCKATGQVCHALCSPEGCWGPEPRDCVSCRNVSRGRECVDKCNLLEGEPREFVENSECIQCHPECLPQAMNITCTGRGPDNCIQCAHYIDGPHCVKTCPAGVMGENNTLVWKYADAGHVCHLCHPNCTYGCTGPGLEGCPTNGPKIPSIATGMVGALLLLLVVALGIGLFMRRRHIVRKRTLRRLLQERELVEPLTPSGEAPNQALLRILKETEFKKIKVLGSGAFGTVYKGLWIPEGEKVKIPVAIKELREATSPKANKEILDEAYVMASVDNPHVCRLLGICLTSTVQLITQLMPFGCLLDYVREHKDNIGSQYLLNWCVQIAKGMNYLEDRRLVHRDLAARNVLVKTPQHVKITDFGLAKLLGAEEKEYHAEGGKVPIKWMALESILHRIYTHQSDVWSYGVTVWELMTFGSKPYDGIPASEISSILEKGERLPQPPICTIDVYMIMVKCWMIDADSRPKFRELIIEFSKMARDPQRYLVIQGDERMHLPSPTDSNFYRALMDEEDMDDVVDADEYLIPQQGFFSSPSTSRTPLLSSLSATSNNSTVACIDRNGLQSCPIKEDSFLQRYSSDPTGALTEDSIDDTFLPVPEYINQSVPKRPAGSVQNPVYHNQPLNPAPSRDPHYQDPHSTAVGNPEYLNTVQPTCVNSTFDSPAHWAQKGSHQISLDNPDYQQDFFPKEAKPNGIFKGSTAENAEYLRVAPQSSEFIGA
BTK in B18.2 cells, sequence (Q06187 whole entry): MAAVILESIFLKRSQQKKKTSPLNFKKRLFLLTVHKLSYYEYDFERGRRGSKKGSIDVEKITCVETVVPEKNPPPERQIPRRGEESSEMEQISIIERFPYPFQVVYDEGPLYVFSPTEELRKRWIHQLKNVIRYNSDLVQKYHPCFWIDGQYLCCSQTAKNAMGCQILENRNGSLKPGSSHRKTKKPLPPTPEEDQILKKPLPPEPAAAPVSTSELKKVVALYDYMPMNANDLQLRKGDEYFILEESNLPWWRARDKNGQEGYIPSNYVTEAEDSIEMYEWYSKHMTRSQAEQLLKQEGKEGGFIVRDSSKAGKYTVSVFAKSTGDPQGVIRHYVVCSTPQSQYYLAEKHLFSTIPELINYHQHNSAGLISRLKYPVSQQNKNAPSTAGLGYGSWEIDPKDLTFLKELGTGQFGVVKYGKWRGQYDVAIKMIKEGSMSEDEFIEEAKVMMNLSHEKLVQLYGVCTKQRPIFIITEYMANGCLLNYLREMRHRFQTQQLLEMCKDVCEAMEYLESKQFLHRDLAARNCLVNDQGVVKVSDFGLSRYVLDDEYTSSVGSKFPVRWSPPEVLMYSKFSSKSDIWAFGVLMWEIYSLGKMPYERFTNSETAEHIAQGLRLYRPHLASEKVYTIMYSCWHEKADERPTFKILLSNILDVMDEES
BTK-Fas association in NALM-6-UM1 cells, sequence (Q06187 2-659): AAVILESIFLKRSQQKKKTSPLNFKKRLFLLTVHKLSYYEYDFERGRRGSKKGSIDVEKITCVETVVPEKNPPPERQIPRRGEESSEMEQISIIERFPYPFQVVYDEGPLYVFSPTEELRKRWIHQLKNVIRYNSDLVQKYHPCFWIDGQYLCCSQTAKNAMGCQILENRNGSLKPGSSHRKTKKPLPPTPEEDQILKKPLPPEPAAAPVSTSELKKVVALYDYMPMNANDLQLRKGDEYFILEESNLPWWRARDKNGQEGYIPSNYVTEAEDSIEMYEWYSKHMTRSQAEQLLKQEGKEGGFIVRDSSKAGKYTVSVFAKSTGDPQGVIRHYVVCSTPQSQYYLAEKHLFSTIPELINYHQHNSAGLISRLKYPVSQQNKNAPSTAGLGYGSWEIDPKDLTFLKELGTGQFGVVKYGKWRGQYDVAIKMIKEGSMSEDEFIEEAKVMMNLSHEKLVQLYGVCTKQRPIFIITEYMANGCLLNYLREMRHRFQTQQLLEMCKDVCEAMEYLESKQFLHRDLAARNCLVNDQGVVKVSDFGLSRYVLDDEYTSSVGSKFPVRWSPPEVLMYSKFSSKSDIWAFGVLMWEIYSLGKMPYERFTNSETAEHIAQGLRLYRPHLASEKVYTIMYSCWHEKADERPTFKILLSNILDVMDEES

`C/C(O)=C(\C#N)C(=O)Nc1cc(Br)ccc1Br` [LFM-A13, α-Cyano-β-hydroxy-β-methyl-N-(2,5-dibromophenyl)-propenamide]: in assay [1], the “cellular BTK activity” value was “dose-dependent inhibition of cellular BTK activity”. The IC50 in assay [2] (EGFR) is greater than 278 µM. For the same molecule, the “effect on enzymatic activity of EGFR” value in assay [2] (concentrations as high as 100 μg/ml (~278 μM)) is listed as “did not affect the enzymatic activity”. The “chemosensitivity to ceramide-induced apoptosis” value in assay [3] was “significantly enhanced the chemosensitivity”. The BTK-Fas association result in assay [4] is recorded as “abrogates the BTK-Fas association”.
